Results from publication PMC12408501, “A novel fluorescent probe, triphenylamine rhodamine-3-acetic acid (mRA) for the detection of Amyloid-β aggregates in Alzheimer's disease” (Frontiers in Neuroscience, 2025).

Biological target: T1, Amyloid-β (Aβ1-42) aggregates (Homo sapiens, UniProt P05067)
T1 construct: gene APP; Aβ1-42 (aggregates)
Experiment: fluorescence enhancement titration (supported by far-UV CD and van't Hoff analysis)
Format: binding

T1 sequence (P05067 672-713): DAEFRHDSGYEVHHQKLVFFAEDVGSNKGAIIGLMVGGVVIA

`O=C(O)CN1C(=O)/C(=C/c2ccc(N(c3ccccc3)c3ccccc3)cc2)SC1=S` [mRA, triphenylamine rhodamine-3-acetic acid] showed a Kd of 341 ± 17 nM.
